Measured values taken from article PMC10058905, “Bioassay-Guided Alkaloids Isolation from Camellia sinensis and Colchicum luteum: In Silico and In Vitro Evaluations for Protease Inhibition” (Molecules, 2023).

Biological target: T1, Trypsin from bovine pancreas (Bos taurus, UniProt P00760)
T1 construct: gene PRSS1
T1 sequence (P00760 24-246): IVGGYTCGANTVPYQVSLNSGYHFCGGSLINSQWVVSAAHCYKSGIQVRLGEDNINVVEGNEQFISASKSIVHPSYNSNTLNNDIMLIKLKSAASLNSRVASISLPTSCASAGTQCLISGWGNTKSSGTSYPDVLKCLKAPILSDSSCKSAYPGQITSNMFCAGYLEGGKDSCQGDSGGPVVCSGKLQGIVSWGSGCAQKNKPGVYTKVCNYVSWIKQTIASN
Experiment: spectrophotometric BApNA hydrolysis assay, positive control
Type: biochemical

With `O=S(=O)(F)Cc1ccccc1` [PMSF] the IC50 was 110 ± 20 µM.
